Patent US8962657B2, “Aryl derivatives and uses thereof” (Jacobus Pharmaceutical Company, Inc., priority 2012, dated 2015)
Marks after values point to notes of the source that are not given here.

Columns and labels:
[1] = test system: P. falciparum strain D6 (sensitive to chloroquine and pyrimethamine); assay: [3H]-hypoxanthine growth inhibition assay, P. falciparum D6; assay type: cell-based; details: Plasmodium falciparum; P. falciparum D6, [3H]-hypoxanthine incorporation; read-out: D6 IC50
Protocol: (§1) The potential for antimalarial activity against Plasmodium falciparum was determined by measuring the incorporation of tritiated hypoxanthine into parasitized red blood cells.
(§2) Stock solutions of the test compounds and the reference drug chloroquine (CQ) (Sigma Chemicals C-6628, Lot #059H0919) were prepared in silanized glass vials with AquaSil™ (Pierce, USA) to minimize absorption of the compounds to glassware. All test compounds were dissolved in DMSO (Sigma Cat No. # D8418) to 1 mM concentration, whereas CQ was dissolved in 50% methanol at a concentration of 1.6 mg/ml (base). Stock solutions were stored at −20° C.
(§3) The P. falciparum laboratory adapted strains utilized in this project (Table 1) were in vitro cultured and routinely maintained in RPMI-1640-LPLF complete medium, which contained low concentrations of para-amino benzoic acid (0.0005 mg/L) and folic acid (0.01 mg/L).
(§4) The low concentration of folic acid in RPMI-1640-LPLF prevents inhibition of the compound if its activity targets the parasite's folate metabolic pathway. Parasites were cultured in human red blood cells (RBCs) in vitro at 37° C. in special gas mixture (5% O2, 5% CO2 and 90% N2) as described Trager and Jensen (1979 Science 193:673-675).
(§5) Base cultivation medium consisted of 10.4 g/L RPMI-1640-LPLF powder (Gibco BRL), 5.97 g/L HEPES buffer (MP Biomedicals, USA), 2.0 g/L D-glucose (BDH chemicals, Australia), 0.05 g/L hypoxanthine (Sigma, USA) and 40 mg/L gentamycin (Pfizer, Australia). The pH of the medium was adjusted to 6.9 and the solution was filtered using 0.2 μm pore size (AcroCap, Gelman Science, USA). […] For [^3H]-hypoxanthine inhibition growth assay, RPMI-1640-LPLF complete medium which lacked [^3H]-hypoxanthine ([^3H]-RPMI-1640-LPLF) was used to prevent uptake of hypoxanthine by parasites, as radioactive hypoxanthine uptake is measured as a surrogate marker of growth. […]
(§6) Red blood cells (RBC) were required for P. falciparum parasites to proliferate in vitro. […] Following the final wash, the haematocrit was measured as the percent of RBC to total culture volume. […]

[2] = test system: Plasmodium berghei (KBG-173 strain); assay: Plasmodium berghei assay in vivo (modified Thompson Test), survival of infected mice; set-up: species or system Charles River CD-1 mice; details: oral bid on days 3, 4 and 5; for Average Days Survival: 31 day experiment
Protocol: In vivo antimalarial activity was tested in male or female Charles River CD-1 mice that were 4-5 weeks old and weighed 20-25 g They were housed in groups of 3 or 4 in standard plastic cages with wire tops, Bed-o-cob® bedding, 12 hr/day of light, and maintained at 75° F. They were fed a standard Ralston Purina mouse chow and the cages and bottles were changed twice a week. Test compounds were ground in a mortar and pestle and diluted with enough vehicle to give a volume of 10 mL/kg of mouse weight. The oral doses were prepared in 0.5% hydroxyethylcellulose (Union Carbide Corp. WP 4400)/0.1% Tween-80 (Fisher Scientific T164-500). The amount of drug was calculated on the free base weight. The mice were infected intraperitoneally on day 0 with 5×10^4 erythrocytes parasitized with Plasmodium berghei (KBG-173 strain) from a donor mouse having a parasitemia between 5-10%. On days 3, 4 and 5 the test compounds were administered bid, spaced 6 hr apart, by oral gavage to the mice. Activity was measured by survival, with full activity defined as all animals living at day 31. Partial activity is defined as days of increased survival versus the infected non-treated controls. This in vivo model is a modification of the Thompson Test. For further description see Ager, A. L, Jr. Rodent Malaria Models. In Handbook of Experimental Pharmacology: Antimalarial Drugs. 1. 68/1; Peters, W., Richards, W. H. G., Eds.: Springer-Verlag: Berlin, 1984, pp. 231-33.

[3] = test system: P. falciparum strain W2 (resistant to chloroquine and pyrimethamine); assay: [3H]-hypoxanthine growth inhibition assay, P. falciparum W2; assay type: cell-based; details: Plasmodium falciparum; P. falciparum W2, [3H]-hypoxanthine incorporation; read-out: W2 IC50
Protocol: as §1, §2, §3, §4, §5, §6

[4] = Plasmodium berghei, 744 h, 16 mg/kg/day, read-out: Number of mice alive at day 31 (converted)

Compound | IC50 [1] | Average Days Survival ([2]; 1 mg/kg/day) | Average Days Survival ([2]; 2 mg/kg/day) | Average Days Survival ([2]; 4 mg/kg/day) | Average Days Survival ([2]; 8 mg/kg/day) | Average Days Survival ([2]; 16 mg/kg/day) | Average Days Survival ([2]; 32 mg/kg/day) | responders at 1 mg/kg ([2]; Plasmodium berghei, 744 h, 1 mg/kg/day, read-out: Number of mice alive at day 31 (converted)) | responders at 2 mg/kg ([2]; Plasmodium berghei, 744 h, 2 mg/kg/day, read-out: Number of mice alive at day 31 (converted)) | responders at 4 mg/kg ([2]; Plasmodium berghei, 744 h, 4 mg/kg/day, read-out: Number of mice alive at day 31 (converted)) | responders at 8 mg/kg ([2]; Plasmodium berghei, 744 h, 8 mg/kg/day, read-out: Number of mice alive at day 31 (converted)) | responders at 16 mg/kg [2, 4] | responders at 32 mg/kg ([2]; Plasmodium berghei, 744 h, 32 mg/kg/day, read-out: Number of mice alive at day 31 (converted)) | IC50 [3] | Average Days Survival ([2]; 64 mg/kg/day) | responders at 64 mg/kg ([2]; Plasmodium berghei, 744 h, 64 mg/kg/day, read-out: Number of mice alive at day 31 (converted))
CC(C)(C)NCc1cc(C(C)(C)C)cc(-c2ccc(Cl)c(C(F)(F)F)c2)c1O.Cl [Example 23, 5-(tert-Butyl)-3-((tert-butylamino)methyl)-4′-chloro-3′-(trifluoromethyl)-[1,1′-biphenyl]-2-ol hydrochloride] | 21 nM | >15.3 days | >7 days | >31* Days | >31* Days | >31* Days | >31* Days | 42.9% | 85.7% | 100% | 100% | 100% | 100% | 9 nM | – | –
CC(C)(C)NCc1cc(-c2ccc(Cl)cc2)nc(-c2ccc(Cl)cc2)c1O.Cl [Example 56, 4-((tert-Butylamino)methyl)-2,6-bis(4-chlorophenyl)pyridin-3-ol hydrochloride] | 32 nM | – | – | – | – | >19.3 days | – | – | – | – | – | 71.4% | – | 12 nM | >20 days | 85.7%
